# Molecular target: T1, CIC-1 channels (Rattus norvegicus, UniProt P35524)
# T1 construct: Gm was measured in individual fibres of whole rat soleus muscles; from tissue; host or cells: soleus muscle of adult (12-14 week old) Wistar rats
# T1 sequence (P35524 1-994): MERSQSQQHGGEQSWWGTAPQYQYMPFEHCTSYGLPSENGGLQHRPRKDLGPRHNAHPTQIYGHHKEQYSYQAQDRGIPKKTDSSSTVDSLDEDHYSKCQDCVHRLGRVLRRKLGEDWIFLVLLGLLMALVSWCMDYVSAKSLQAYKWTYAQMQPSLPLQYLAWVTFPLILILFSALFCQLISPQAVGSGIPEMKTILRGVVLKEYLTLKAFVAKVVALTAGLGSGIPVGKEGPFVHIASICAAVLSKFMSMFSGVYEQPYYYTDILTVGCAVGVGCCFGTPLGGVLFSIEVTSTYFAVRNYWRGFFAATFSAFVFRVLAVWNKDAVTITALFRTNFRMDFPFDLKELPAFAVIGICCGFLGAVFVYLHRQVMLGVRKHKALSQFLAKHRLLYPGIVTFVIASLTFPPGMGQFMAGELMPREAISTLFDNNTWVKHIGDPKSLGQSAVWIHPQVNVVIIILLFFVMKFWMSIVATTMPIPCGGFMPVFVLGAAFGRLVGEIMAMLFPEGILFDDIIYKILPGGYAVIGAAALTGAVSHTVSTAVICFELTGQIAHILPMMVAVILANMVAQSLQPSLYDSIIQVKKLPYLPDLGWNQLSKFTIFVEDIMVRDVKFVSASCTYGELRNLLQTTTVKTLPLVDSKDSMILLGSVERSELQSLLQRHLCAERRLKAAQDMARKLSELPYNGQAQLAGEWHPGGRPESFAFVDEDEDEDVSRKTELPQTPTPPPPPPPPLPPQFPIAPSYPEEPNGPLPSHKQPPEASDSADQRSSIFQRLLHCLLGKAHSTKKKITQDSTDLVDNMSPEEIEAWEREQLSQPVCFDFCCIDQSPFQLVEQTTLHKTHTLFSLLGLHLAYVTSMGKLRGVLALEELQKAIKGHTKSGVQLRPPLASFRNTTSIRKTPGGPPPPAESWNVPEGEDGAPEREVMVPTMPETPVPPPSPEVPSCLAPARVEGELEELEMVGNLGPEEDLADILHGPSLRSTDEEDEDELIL
# Test: Electrophysiological measurement of compound inhibition of CIC-1 in rat muscle (Gm, EC50)
# Assay type: cell-based
# Settings: rat soleus muscle fibres, three micro-electrode Gm measurement; read-out: EC50 (inhibition of ClC-1 ion channel, Gm)
row,SMILES,EC50
1,"[2H][C@@](CF)(Oc1ccc(Br)cc1)C(=O)O [Compound A-82, (2R)-2-(4-bromophenoxy)-3-fluoro(2-^2H)propanoic acid]",5.2 ± 1.3 µM
2,"[2H]CC([2H])[C@H](Oc1ccc(Br)cc1)C(=O)O (stereo partly drawn) [Compound A-76, (2S)-2-(4-bromophenoxy)(3,4-^2H2)butanoic acid]",3.8 ± 2.1 µM

# Same assay, conditions: rat soleus muscle fibres; sigmoidal fit of average Gm; read-out: EC50 (inhibition of CIC-1, reduction of Gm)
row,SMILES,EC50
1,"CC(C)[C@@H](Oc1ccc(Br)cc1F)C(=O)O [Compound A-4, (2R)-2-(4-bromo-2-fluoraphenoxy)-3-methylbutanoic acid]",> 80 µM

# Tested on: isolated rat soleus muscles
# Test: Recovery of nerve-stimulated force in isolated rat soleus muscles exposed to sub-maximal tubocurarine
# Assay type: cell-based
# Settings: not given
# Experimental: Experiments were performed using rat soleus muscles from either young (4-wk-old) or adult Wistar rats (12-14-week-old). Animal handling, killing and isolation of muscle is described elsewhere All experiments were performed using normal Krebs-Ringer bicarbonate solution (NKR). In solutions with elevated Mg^2+, MgCl2 was added to NKR-solution causing minor increases in osmolarity and ionic strength. In solutions with elevated K^+, 4 mM NaCl was replaced by 4 mM KCl in the NKR.
# In all contraction experiments, isometric force production was determined and force produced during contractions was quantified by measuring the integral of the force response (AUC). Stimulation and force recordings have been described elsewhere. […] In these latter experiments, extracellular recordings of action potentials (M-waves) could be measured without temporal overlap with stimulation artefacts.
# The aim was to find compounds that by inhibition of CIC-1 channels can recover nerve-stimulated force under conditions of fatigue including conditions where fatigue is caused by compromised neuromuscular transmission. Neuromuscular transmission dysfunction can develop because of both pre- and/or post-synaptic complications in connection with a disorder or as part of neuromuscular blockade during/after surgery. In the initial series of drug testing, experiments were performed with isolated muscles in the presence of sub-maximal ACh receptor antagonist tubocurarine. Since the inclusion of tubocurarine caused a partial loss of neuromuscular transmission this experiment mimics the conditions in myasthenia gravis and neuromuscular blockade. To mimic conditions with pre-synaptic complication (Lambert Eaton syndrome, motor neuron disorder, polyneuropathy) the intact nerve-muscle preparations were incubated at elevated extracellular Mg^2+, which is known to suppress release of ACh from nerve terminals of motor neurons.
# The experiments also illustrate that field stimulation of the entire nerve-muscle preparation selectively activates the motor nerve when short-duration pulses (0.02 vs 0.2 ms) were used. In FIG. 1A the preparation was stimulated either via field stimulation or via nerve-stimulation using a suction electrode. With the suction electrode only the nerve could be stimulated. When exposed to a submaximal concentration of the ACh receptor antagonist tubocurarine (0.2 μM) a clear drop in peak force and a further decline (or fade) in force during the stimulation developed. This drop in force clearly reflected compromised neuromuscular transmission, as the decline in peak force and fading were not seen with direct stimulation of the muscle. […] Thus, loss of M-wave and force with tubocurarine reflected partial blockade of neuromuscular function. Such fading of force and M-waves during stimulation represent clinical hallmarks of both myasthenia gravis and neuromuscular blockade in connection with surgery. In FIG. 1B, observations with normal (0.2 ms) and short-duration (0.02 ms) pulses have been compared. It can be seen that only with short-duration pulses did tubocurarine cause a decline in peak force and fading (FIG. 1B). This confirms that short-duration pulses in field stimulation could be used as specific nerve-stimulation. […] Elevated extracellular Mg^2+ could thus be used to partially block neuromuscular transmission and thus be used as a model of conditions with compromised pre-synaptic function (Lambert Eaton syndrome, amyotrophic lateral sclerosis, spinal muscular atrophy). […]
SMILES,50 μM % change after addition (AUC of nerve-stimulated force),150 μM % change after addition (AUC of nerve-stimulated force)
"CC(Oc1ccc(Cl)cc1)C(=O)Oc1ccc(Cl)cc1 (centres unmarked) [Compound C11, 4-chlorophenyl 2-(4-chlorophenoxy)propanoate]",46%,54%

# Molecular target: T2, human CIC-1 channels (Homo sapiens, UniProt P35523)
# T2 construct: host or cells: CHO (Chinese hamster ovary) cells, cryopreserved, used directly after thawing
# T2 sequence (P35523 whole entry): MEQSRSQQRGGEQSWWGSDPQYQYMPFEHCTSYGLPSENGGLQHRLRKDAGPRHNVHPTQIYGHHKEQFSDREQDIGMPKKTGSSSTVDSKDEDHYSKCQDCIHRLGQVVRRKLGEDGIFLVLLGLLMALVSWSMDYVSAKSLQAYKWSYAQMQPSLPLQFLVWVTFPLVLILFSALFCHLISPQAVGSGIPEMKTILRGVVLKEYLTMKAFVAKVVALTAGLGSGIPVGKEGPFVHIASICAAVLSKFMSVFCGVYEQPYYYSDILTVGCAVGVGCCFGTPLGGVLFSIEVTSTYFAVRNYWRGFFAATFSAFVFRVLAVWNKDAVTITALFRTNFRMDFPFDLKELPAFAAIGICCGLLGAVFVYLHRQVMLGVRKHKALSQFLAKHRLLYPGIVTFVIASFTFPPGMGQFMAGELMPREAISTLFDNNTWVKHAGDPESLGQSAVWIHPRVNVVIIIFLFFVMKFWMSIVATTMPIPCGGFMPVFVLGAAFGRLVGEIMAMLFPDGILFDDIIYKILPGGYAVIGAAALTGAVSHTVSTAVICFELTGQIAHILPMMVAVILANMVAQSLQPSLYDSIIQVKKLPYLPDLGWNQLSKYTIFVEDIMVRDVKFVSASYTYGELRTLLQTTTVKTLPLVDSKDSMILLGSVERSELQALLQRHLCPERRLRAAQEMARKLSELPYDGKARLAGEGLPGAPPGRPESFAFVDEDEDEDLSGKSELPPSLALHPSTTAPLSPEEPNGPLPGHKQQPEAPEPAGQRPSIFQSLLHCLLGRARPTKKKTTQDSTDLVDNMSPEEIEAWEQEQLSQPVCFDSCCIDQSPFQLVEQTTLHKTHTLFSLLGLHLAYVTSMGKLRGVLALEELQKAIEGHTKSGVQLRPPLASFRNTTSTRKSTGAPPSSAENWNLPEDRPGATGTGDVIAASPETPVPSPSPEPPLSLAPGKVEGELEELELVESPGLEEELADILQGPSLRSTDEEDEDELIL
# Test: Automated patch-clamp on human CIC-1 expressed in CHO cells (shift in half activation voltage V1/2)
# Assay type: cell-based
# Settings: compound in intracellular solution vs vehicle control patches; CHO cells expressing human ClC-1
# Experimental: FIG. 13A-13B: FIG. 13A illustrates the voltage protocol used to evoke currents in whole cell patches of CHO cells expressing human CIC-1 channels.
# The investigatory goal of these experiments was to evaluate how compounds affect the open probability and current amplitude of human CIC-1 channels expressed in CHO cells. Experiments were performed using an automated patch clamp system that allowed high throughput testing of whole cell patches together with both intracellular and extracellular addition of compound.
# Automated whole cell patch clamp experiments were performed with the Qpatch 16 system (Sophion Bioscience, Ballerup, Denmark) at room temperature. Data acquisition and analysis were performed in the Qassay software (ver. 5.6, Odense).
# To obtain tail currents, the membrane potential was stepped to −100 mV after each test voltage for 300 ms and then relaxed to −30 mV for 2 sec between sweeps (FIG. 3). I/V relationships for whole cell instant and steady state current amplitudes were obtained by plotting average current densities at the beginning and at the end of the 300 ms step against the membrane potential (FIG. 4).
# In order to determine the relative overall open probability (Po), the instantaneous tail currents were normalized to the maximal tail current obtained following the most positive voltage step and plotted against the test voltage. Plots of normalized tail currents from each whole cell patch were then fitted to a Boltzmann function allowing determination of half activation voltages (V1/2, FIG. 5).
# Osmolality adjusted to […] using sucrose.
# Intracellular solutions contained: 80 mM […], 60 mM CsCl, 5/1 mM KOH/EGTA, 10 mM HEPES, 10 mM NaCl, pH adjusted to 7.2 with NaOH (2 M). Osmolality adjusted to ˜320 mOsm using sucrose.
# Cells used in patch clamp experiments were Chinese hamster ovary cells (CHO) constitutively expressing human CIC-1 channels. The amino acid sequence encoded by the cDNA used to create this cell line was identical to the translated sequence for GenBank accession number NM_000083.2. Cells were produced by Charles River (Catalogue CT6175, Cleveland Ohio, USA) in a cryopreserved format. Experiments were performed on the cells directly after thawing (3×10^6 cells used in each experiment).
# To evaluate the compound effect on CIC-1, when applied directly to the intracellular side of the cell membrane, the half activation voltage, V1/2, was determined from whole cell patches with compound added to the intracellular solution and then compared to V1/2 determined from control cell patches with only vehicle added to the intracellular solution. Additionally, the effect of extracellular added compound was evaluated by determine V1/2 and steady state current amplitudes before and after exchanging the extracellular solution to contain compound.
# The difference in half activation voltage of CIC-1 channels, […]V1/2, was determined as the difference between the cell patches treated intracellularly with compound and control cells patches and is reported in Table 4 below. A positive shift in […]V1/2 is reflecting CIC-1 channel inhibition by the tested compound. P-values of <0.05 is considered significant.
row,SMILES,ΔV½ (difference in half activation voltage of ClC-1)
1,"O=C(O)[C@H](CCF)Oc1ccc(Br)cc1 [Compound A-87, (2S)-2-(4-bromophenoxy)-4-fluorobutanoic acid]",16.4 mV
2,"COC[C@H](Oc1ccc(Br)cc1Br)C(=O)O [Compound A-74, (2S)-2-(2,4-dibromophenoxy)-3-methoxypropanoic acid]",10.4 mV
3,"C#CC[C@H](Oc1ccc(Br)cc1F)C(=O)O [Compound A-69, (2S)-2-(4-bromo-2-fluorophenoxy)pent-4-ynoic acid]",32.6 mV
4,"C[C@H](Oc1ccc(Cl)cc1F)C(=O)O [Compound A-38, (2S)-2-(4-chloro-2-fluorophenoxy)propanoic acid]",17.4 mV
5,"O=C(O)[C@H](CCF)Oc1ccc(Br)cc1F [Compound A-85, (2S)-2-(4-bromo-2-fluorophenoxy)-4-fluorobutanoic acid]",12.5 mV
6,"O=C(O)[C@@H](Oc1ccc(Br)cc1F)C1CC1 [Compound A-89, (2S)-2-(4-bromo-2-fluorophenoxy)-2-cyclopropylacetic acid]",10.3 mV
7,"[2H][C@@](CF)(Oc1ccc(Br)cc1)C(=O)O [Compound A-82, (2R)-2-(4-bromophenoxy)-3-fluoro(2-^2H)propanoic acid]",19.0 mV
8,"CC[C@H](Oc1ccc(Br)cc1F)C(=O)O [Compound A-58, (2S)-2-(4-bromo-2-fluorophenoxy)butanoic acid]",28.2 mV
9,"C[C@H](Oc1ccc(Br)cc1Br)C(=O)O [Compound A-40, (2S)-2-(2,4-dibromophenoxy)propanoic acid]",5.19 mV
10,"CC(C)[C@H](Oc1ccc(Br)cc1F)C(=O)O [Compound A-27, (2S)-2-(4-bromo-2-fluorophenoxy)-3-methylbutanoic acid]",20.2 mV
11,"C#CC[C@H](Oc1ccc(Br)cc1Br)C(=O)O [Compound A-66, (2S)-2-(2,4-dibromophenoxy)pent-4-ynoic acid]",27.4 mV
12,"C#CC[C@H](Oc1ccc(Br)cc1Cl)C(=O)O [Compound A-67, (2S)-2-(4-bromo-2-chlorophenoxy)pent-4-ynoic acid]",37.8 mV
13,"O=C(O)[C@H](CF)Oc1ccc(Br)cc1 [Compound A-26, (2R)-2-(4-bromophenoxy)-3-fluoropropanoic acid]",19.7 mV
14,"[2H]c1cc(Br)cc([2H])c1O[C@@H](C)C(=O)O [Compound A-6, (2S)-2-[4-bromo(2,6-^2H2)phenoxy]propanoic acid]",13.0 mV
15,"O=C(O)[C@@H](Oc1ccc(Br)cc1F)C(F)F [Compound A-9, (2R)-2-(4-bromo-2-fluorophenoxy)-3,3-difluoropropanoic acid]",15.2 mV
16,"[2H]CC([2H])[C@H](Oc1ccc(Br)cc1)C(=O)O (stereo partly drawn) [Compound A-76, (2S)-2-(4-bromophenoxy)(3,4-^2H2)butanoic acid]",26.2 mV
17,"C[C@H](Oc1ccc(Br)cc1I)C(=O)O [Compound A-8, (2S)-2-(4-bromo-2-iodophenoxy)propanoic acid]",9.4 mV
18,"C[C@@H](F)[C@H](Oc1ccc(Br)cc1F)C(=O)O [Compound A-95, (2R,3R)-2-(4-bromo-2-fluorophenoxy)-3-fluorobutanoic acid]",10.3 mV

# — patent US11730714B2, “Compounds for the treatment of neuromuscular disorders” (NMD PHARMA A/S, priority 2017, dated 2023)
